From patent publication US8183388B2, “Androgen receptor modulator and uses thereof” (Eli Lilly and Company, priority 2009, dated 2012) come the findings set out here.

The target in series [1] is T1, human GR (glucocorticoid receptor) (Homo sapiens, UniProt P04150).
T1 construct: expressed in transfected cells; host or cells: HEK293 (lysate, 293-GR)
T1 sequence (P04150 1-777): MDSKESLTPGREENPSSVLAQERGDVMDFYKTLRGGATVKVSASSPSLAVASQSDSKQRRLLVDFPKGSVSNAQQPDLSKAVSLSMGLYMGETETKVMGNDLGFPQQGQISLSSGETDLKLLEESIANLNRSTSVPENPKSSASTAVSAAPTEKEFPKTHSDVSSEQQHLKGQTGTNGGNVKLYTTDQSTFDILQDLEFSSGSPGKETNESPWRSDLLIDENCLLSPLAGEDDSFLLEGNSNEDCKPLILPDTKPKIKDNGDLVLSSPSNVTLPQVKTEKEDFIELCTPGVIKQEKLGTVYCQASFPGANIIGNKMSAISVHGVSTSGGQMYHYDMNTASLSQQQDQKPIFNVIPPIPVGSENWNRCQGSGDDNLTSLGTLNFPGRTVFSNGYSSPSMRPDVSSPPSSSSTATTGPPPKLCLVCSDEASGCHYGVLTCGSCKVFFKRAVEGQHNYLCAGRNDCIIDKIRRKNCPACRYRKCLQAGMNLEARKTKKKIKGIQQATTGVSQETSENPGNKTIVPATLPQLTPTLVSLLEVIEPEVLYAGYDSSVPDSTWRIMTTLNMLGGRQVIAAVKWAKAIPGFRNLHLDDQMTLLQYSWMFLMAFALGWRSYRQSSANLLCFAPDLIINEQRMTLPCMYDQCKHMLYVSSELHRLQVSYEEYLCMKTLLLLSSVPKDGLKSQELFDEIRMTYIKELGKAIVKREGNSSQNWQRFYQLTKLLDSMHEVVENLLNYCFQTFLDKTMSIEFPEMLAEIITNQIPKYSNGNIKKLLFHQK
The series is described as follows: Steroid hormone nuclear receptor binding assay, GR. Particulars: HEK293 lysate overexpressing human GR, [3H]-dexamethasone. As to the method: Cell lysates from human embryonic kidney HEK293 cells overexpressing human MR (mineralocorticoid receptor), GR (glucocorticoid receptor), AR (androgen receptor), or PR (progesterone receptor) are used for receptor-ligand competition binding assays to determine Ki values. Typical procedures are provided below
Briefly, steroid receptor competition binding assays are run in a buffer containing 20 mM HEPES buffer (pH=7.6), 0.2 mM EDTA, 75 mM NaCl, 1.5 mM MgCl2, 20% glycerol, 20 mM sodium molybdate, 0.2 mM DTT (dithiothreitol), 20 μg/mL aprotinin and 20 μg/mL leupeptin (assay buffer). Typically, steroid receptor binding assays include radio-labeled ligands, such as 0.25 nM [^3H]-aldosterone for MR binding, 0.3 nM [^3H]-dexamethasone for GR binding, 0.36 nM [^3H]-methyltrienolone for AR binding, and 0.29 nM [^3H]-methyltrienolone for PR binding, and either 20 μg 293-MR lysate, 20 μg 293-GR lysate, 22 μg 293-AR lysate, or 40 μg 293-PR lysate per well. Assays are typically run in 96-well format. Competing test compounds are added at various concentrations ranging from about 0.01 nM to 10 μM. Non-specific binding is determined in the presence of 500 nM aldosterone for MR binding, 500 nM dexamethasone for GR binding, or 500 nM methyltrienolone for AR and PR binding. […] After an incubation of 2 hours, plates are read in a Wallac Microbeta counter. […]

A short description of series [2]: Determination of plasma exposure. Format: in vivo. Particulars: Sprague Dawley, rat, male rats, read-out: AUC (area under the plasma concentration time curve). The method, then: Groups of male Sprague Dawley rats (6 animals/group) are dosed either orally (dosing volume of 1.25 ml/kg; vehicle of 5% DMSO/95% HEC) or subcutaneously (dosing volume of 2.5 ml/kg; vehicle of 5% DMSO/95% soybean oil) with 10 mg/kg p.o, 1 mg/kg s.c., 3 mg/kg s.c., or 10 mg/kg s.c. of the compound of Formula (I), once per day for two weeks. Starting on the second to last day of dosing, plasma samples are collected at 0.5, 2, 4, or 24 hours post-dosing (two animals are sampled at each time-point, with the same animals being used for the 0.5 and 24 hour time-point samples). The plasma concentration of the compound of Formula (I) is determined for each collected sample using LC/MS/MS (Sciex API-4000 LC/MS/MS system). The resulting concentrations are used to construct an area under the plasma concentration time curve (AUC) for each administered dose as an index of exposure. Following a protocol essentially as described above, the administered doses of the compound of Formula (I) produced the following AUC values: 10 mg/kg p.o: about 295,511 ng·hr./ml.; 1 mg/kg s.c.: about 38,963 ng·hr./ml.; 3 mg/kg s.c.: about 137,056 ng·hr./ml.; and 10 mg/kg s.c.: about 218,537 ng·hr./ml.

Broadly, the pKi is the negative decadic logarithm of the Ki, by convention in mol/L.

pKi: −log10 of the molar value. Where two headings read alike, the source gives them in different places.

In turn, `CC(C)OC(=O)N[C@H]1Cc2c(n(C[C@H]3OCC[C@@H]3O)c3ccc(C#N)cc23)C1` [compound of Formula (I), [(S)-7-Cyano-4-((2R,3S)-3-hydroxytetrahydrofuran-2-ylmethyl)-1,2,3,4-tetrahydrocyclopenta[b]indol-2-yl]-carbamic acid isopropyl ester] gave a pKi in series [1] of less than 5.70. In addition, the AUC is approximately 296 µg·h/mL in series [2] (po, 10 mg/kg p.o. once per day for two weeks, 5% DMSO/95% HEC); approximately 39 µg·h/mL in series [2] (sc, 1 mg/kg s.c. once per day for two weeks, 5% DMSO/95% soybean oil); approximately 137 µg·h/mL in series [2] (sc, 3 mg/kg s.c. once per day for two weeks, 5% DMSO/95% soybean oil); approximately 219 µg·h/mL in series [2] (sc, 10 mg/kg s.c. once per day for two weeks, 5% DMSO/95% soybean oil).
